For test [1], the system named is rhinocerebral mucormycosis. The test is described as follows: Salvage therapy of a patient with rhinocerebral mucormycosis (case). It is filed as in vivo, human. The following applies: one patient. The method, then: A person with diabetic ketoacidosis presented to the emergency department of an outside hospital with polyuria, polydipsia, left retrobulbar pain, and a left cranial nerve (CN) VI palsy. […] The patient progressed to complete left opthalmoplegia in the first 24 hours. Rhinocerebral mucormycosis was suspected, and they were started on amphotericin B lipid complex (ABLC) at 5 mg/kg/day, along with empiric antibacterial agents, for treatment of sinusitis. On hospital day 2 they underwent endoscopic sphenooethmoid exploration. […] Bacterial culture grew only rare Enterobacter aerogenes.
Over the next twelve days, the patient developed blindness and worsening proptosis in the left eye. He was continued on ABLC and no further surgery was performed.
The patient was transferred to our institution for further management on hospital day 14. Immediately upon arrival, he underwent left orbital exenteration with enucleation and extensive sinus debridement and resection. Intraoperative findings included an ischemic globe with extensive surrounding necrosis of the extraocular muscles.
Antifungal therapy was continued. […] Given the location of the lesion at the superficial aspect of the pons, a dose of intracisternal amphotericin was administered, but the patient refused further doses. The patient remained clinically and neurologically unchanged. […]

Test [2] relates to R. oryzae. The experiment in a line: Tissue fungal burden of DKA mice infected with R. oryzae. It is filed as in vivo, BALB/c male mice. The method, then: Briefly, for in vivo infection, BALB/c male mice (>20 g) were rendered diabetic with a single i.p. injection of 210 mg/kg streptozotocin in 0.2 ml citrate buffer 10 days prior to fungal challenge. […] Mice were infected through the tail vein with the appropriate inocula of R. oryzae. To confirm the inocula, dilutions were streaked on PDA plates and colonies were counted following a 24 h incubation period at room temperature. The primary efficacy endpoint was time to death. As a secondary endpoint, brain fungal burden (the primary target organ) was determined by homogenization by rolling a pipette on organs placed in Whirl-Pak bags (Nasco, Fort Atkinson, Wis.) containing 2 ml saline. The homogenate was serially diluted in 0.85% saline and then quantitatively cultured on PDA. Values were expressed as log 10 cfu g^−1 tissue. All procedures involving mice were approved by the institutional animal use and care committee, following the National Institutes of Health guidelines for animal housing and care.
For in vivo infection, BALB/c male mice (>20 g) were rendered diabetic with a single i.p. injection of 210 mg/kg streptozotocin in 0.2 ml citrate buffer 10 days prior to fungal challenge. […] For neutropenic mouse model, mice were injected with a single i.p. dose of 200 mg/kg cyclolphosphamide (Bristol Myer Squibb) 2 days prior to infection with R. oryzae. […] Mice were infected through the tail vein with the appropriate inocula of R. oryzae. To confirm the inocula, dilutions were streaked on PDA plates containing 0.1% triton and colonies were counted following a 24 h incubation period at 37° C. The primary efficacy endpoint was time to death. As a secondary endpoint, brain fungal burden (the primary target organ) was determined by homogenization by rolling a pipette on organs placed in Whirl-Pak™ bags (Nasco®, Fort Atkinson, Wis.) containing 1 ml saline. The homogenate was serially diluted in 0.85% saline and then quantitatively cultured on PDA. Values were expressed as log10 cfu g−1 tissue. Finally, for histopathological analysis, infected organs were collected from mice and fixed in 10% zinc formalin. Fixed tissues were embedded in paraffin, and […] sections were stained with haematoxylin and eosin for light microscopy examination. All procedures involving mice were approved by the institutional animal use and care committee, following the National Institutes of Health guidelines for animal housing and care.

Test [3] has as its system R. oryzae 99-892. The experiment in a line: Kidney histopathology of DKA mice infected with R. oryzae. The test is classed as in vivo. To be noted: 10 mg/kg bid. The method, then: For in vivo infection, BALB/c male mice (>20 g) were rendered diabetic with a single i.p. injection of 210 mg/kg streptozotocin in 0.2 ml citrate buffer 10 days prior to fungal challenge. Glycosuria and ketonuria were confirmed in all mice 7 days after streptozotocin treatment. For neutropenic mouse model, mice were injected with a single i.p. dose of 200 mg/kg cyclolphosphamide (Bristol Myer Squibb) 2 days prior to infection with R. oryzae. […] Mice were infected through the tail vein with the appropriate inocula of R. oryzae. To confirm the inocula, dilutions were streaked on PDA plates containing 0.1% triton and colonies were counted following a 24 h incubation period at 37° C. The primary efficacy endpoint was time to death. As a secondary endpoint, brain fungal burden (the primary target organ) was determined by homogenization by rolling a pipette on organs placed in Whirl-Pak™ bags (Nasco®, Fort Atkinson, Wis.) containing 1 ml saline. The homogenate was serially diluted in 0.85% saline and then quantitatively cultured on PDA. Values were expressed as log10 cfu g−1 tissue. […]
To determine the impact of deferasirox on tissue fungal burden, diabetic ketoacidotic mice were infected via the tail-vein with 4.2×10^4 spores of R. oryzae 99-892. […] Kidneys and brains were removed on day four, homogenized, and quantitatively cultured.

[4] abbreviates: 4.2×10^4 spores R. oryzae 99-892, 10 mg/kg bid, 3 days, vs placebo or deferasirox plus saturating ferric chloride.

Here are results for 1 compound from patent publication US20100129434A1, “COMPOSITIONS AND METHODS FOR THE TREATMENT OF MUCORMYCOSIS AND OTHER FUNGAL DISEASES” (priority 2006, published 2010).

Regarding `O=C(O)c1ccc(-n2nc(-c3ccccc3O)nc2-c2ccccc2O)cc1` [Deferasirox, 4-[3,5-Bis(2-hydroxyphenyl)-1H-1,2,4-triazol-1-yl]-benzoic acid], in test [1] (1000 mg po daily seven days, LAmB continued, one week after treatment), the “repeat MRI of the brain” value is “resolution of the edema in the left cerebellar peduncle”. In addition, the radiographic outcome in test [1] (after 7 days of treatment) is “substantial radiographic improvement”. Also, in test [2] (setting [4]), the “decrease in brain fungal burden” value was “greater than 10 fold” and the “decrease in kidney fungal burden” value is “greater than 10 fold”. Also, the “brain CFUs compared to placebo” value in test [2] (R. oryzae 99-880, monotherapy, organs harvested day 3) is reported as “neither drug alone was able to reduce brain CFUs”. Moreover, in test [3], the “hyphae in kidneys by histopathology” value is reported as “no visible hyphae” and the “neutrophil influx in the kidneys” value is “prominent”.
